Structures can show the parent of a compound that is named as a salt.
Experiments:
[1] = system: young Lemon Sharks (Negaprion brevirostris); details: in vivo; cited from earlier work
sharks [2] = details: cited from earlier work
[3] = system: blue sharks and great white sharks; details: squirted into the mouth; cited from earlier work
[4] = system: tiger sharks and other fish; details: in vivo; cited from earlier work
[5] = system: several species of sharks; details: shark pens at Bimini, Bahamas; cited from earlier work
sharks [6] = details: in vivo
[7] = system: at least four species of sharks; details: cited from earlier work
[8] = room temperature, heat; cited from earlier work

## CCCCCCCCCCCCOS(=O)(=O)[O-].[Li+] [LLS]
[1]
  repelling captive Lemon Sharks, compared with pardaxin: even more effective than pardaxin

## CCCCCCCCCCCCOS(=O)(=O)[O-].[Na+] [SLS]
Sharks [2]; in vivo
  effectiveness in surrounding-cloud-mode dispersions: not effective
[1]
  repelling captive Lemon Sharks, compared with pardaxin: even more effective than pardaxin
[3]
  repellency against blue sharks and great white sharks: effective repellent

## CCCCCCCCCCCCOS(=O)(=O)O [dodecyl sulfate]
Sharks [2]; requirement 100 parts per billion (0.1 ppm or 100 micrograms/Liter)
  meeting the Navy's potency requirement for a nondirectional surrounding-cloud type repellent: did not meet

## copper acetate
[4]
  efficacy against tiger sharks and other fish: inefficacy
[5]
  repelling or inhibiting feeding activities: fails to repel or inhibit the feeding activities
Sharks [6]
  effectiveness as a shark repellent: ineffective

## pardaxin
[7]; freeze-dried form
  effectiveness relative to the fresh secretion: 30%
[7]; laboratory and open sea, at least four species
  time for which sharks were repelled: ≥ 10 h
[8]
  storage stability: not stable for room temperature storage, and was heat-sensitive
